Data as given in US6673937B2, “Syntheses and methods of use of new antimitotic agents” (The University of Pittsburgh, priority 2000, dated 2004).
Read-outs that look alike come from different tables or passages of the source.

Tests used:
[1] = test system: MDA-MB-231 cells; experiment: Antiproliferative assay, MDA-MB-231 cells; type: cell-based, human; conditions: 72 hours; for IC50: read-out: MDA-MB-231 50% cell growth inhibition; for sensitivity of MDA-MB-231 cells, in words: FIG. 23 Panel B
From the text: MDA-MB-231 cells, which were also derived from an adenocarcinoma of the breast, are less differentiated than the MCF-7 cells and fail to express functional p53 or estrogen receptors. This class of tumor cells contains important targets for new therapies, because loss of estrogen receptor expression is associated with poor patient prognosis. (Osborne, C. K. Breast Cane. Res. Treatm. 1998, 51, 227).
The inventors extrapolated to determine the IC50 for compounds with little cytotoxicity at 30,μM, the highest concentration tested. […] The enhanced sensitivity of MCF-7 to these compounds may be due to the expression of p53 in these cells.
(§1) Two compounds, 24 referred to herein as SR-4 and 27 referred to herein as SR-7, were examined in greater detail as to their effects on biological activity. The proliferation of MCF-7, MDA-MB-231 and SV40 transformed mouse embryonic fibroblasts was measured by a previously described colorimetric assay (Wipf P, Jung J-K, Rodriguez S, Lazo JS Synthesis and biological evaluation of Deoxypreussomerin A and Palmarumycin CP 1 and related naphthoquinone spiroketals. Tetrahedron 57:283-296, 2001 and Vogt A, Rice RL, Settineri CE, Yokokawa F, Yokokawa S, Wipf P and Lazo JS (1998) Disruption of insulin-like growth factor-I signaling and down-regulation of Cdc2 by SC-ααδ9, a novel small molecule antisignaling agent identified in a targeted array library. J Pharmacol Exptl Therap 287:806-813.). Briefly, the inventors seeded 4,000-6,000 cells per well in microtiter plates. Cells were allowed to attach overnight and treated with vehicle or compounds for 72 h, after which the medium was replaced with serum free medium containing 0.1% 3-[4,5-dimethylthiazol-2-yl]-2,5-diphenyl tetrazolium bromide. Plates were incubated for 3 hours in the dark and total cell number was determined by spectrophotometrically at 540 nm as previously described (Vogt A, Rice RL, Settineri CE, Yokokawa F, Yokokawa S, Wipf P and Lazo JS (1998) Disruption of insulin-like growth factor-1 signaling and down-regulation of Cdc2 by SC-ααδ9, a novel small molecule antisignaling agent identified in a targeted array library. J Pharmacol Exptl Therap 287:806-813.). […] Cells were maintained in RPMI 1640 medium containing 10% fetal bovine serum and the paclitaxel-resistant cells also contained 17 nM paclitaxel and 10 μM verapamil. Cells were plated (2,000/well) in 96-well plates and allowed to attach and grow for 72 hours (paclitaxel and verapamil were removed from resistant cell medium two weeks prior to this plating). They were then treated with 0.5% DMSO vehicle control or 0.08-10 μM compound. The number of cells was determined spectrophotometrically at 490 nm minus absorbance at 630 nm after exposure to 3-(4,5-dimethylthiazol-2-yl)-5-(3-carboxymethoxyphenyl)-2-(4-sulfophenyl)-2H-tetrazolium and N-methyldibenzopyurazine methyl sulfate.
Because of the potential importance of the tumor suppressor gene p53 and the estrogen receptor in controlling the cellular response to cytotoxic agents, the inventors also examined the sensitivity of MDA-MB-231 cells, which lack functional p53 and estrogen receptors. […] As might be expected, these p53 and estrogen receptor deficient cells were generally less sensitive to both natural products and analogs when compared to MCF-7 cells.

[2] = test system: MCF-7 cells; experiment: Antiproliferative assay, MCF-7 cells; type: cell-based; conditions: read-out: MCF-7 50% cell growth inhibition
Experimental: Two widely used human breast cancer cell lines were evaluated for sensitivity to the cytotoxic effects of the naphthoquinone spiroketals. MCF-7 cells were originally derived from an adenocarcinoma of the breast and retain several characteristics of differentiated mamnmary epithelium including the ability to process estradiol via cytoplasmic estrogen receptors. MCF-7 cells express the tumor suppressor gene product p53, which is required for the programmed cell death or apoptosis caused by many agents. (Foster, B. A.; Coffey, H. A.; Morin, M. J.; Rastinejad, F. Science 1999, 286, 2507).
as §1, with “The” for “Two compounds, 24 referred to herein as SR-4 and 27 referred to herein as SR-7, were examined in greater detail as to their effects on biological activity. The”, “sulfate. […]” for “sulfate.”

Row | Compound | IC50 ([1]; Homo sapiens, MDA-MB-231) | IC50 ([2]; Homo sapiens, MCF7, 72 h) | IC50 [1] | IC50 ([2]; 72 hours) | sensitivity of MDA-MB-231 cells, in words [1]
1 | COc1ccc(COc2cccc3c2C(=O)C=CC32Oc3cccc4cccc(c34)O2)cc1 [TH-39, 8-(4-methoxy-benzyloxy)-1-oxo-1,4-dihydronaphthalene4-spiro-2-naphto [1,8-de][1, 3]dioxin] | 2.2 µM | 0.7 µM | – | – | –
2 | O=C1C=CC2(Oc3cccc4cccc(c34)O2)c2cccc(OCCc3ccccc3)c21 [SR-6, 8-(2-phenyl-ethoxy)-1-oxo-1,4-dihydronaphthalene-4-spiro-2′-naphto [1″,8″-de][1′,3′] dioxin] | 4.6 µM | 3.9 µM | – | – | –
3 | O=C1C=CC2(Oc3cccc4cccc(c34)O2)c2cccc(OCc3ccoc3)c21 [SR-10, 8-(furan-3-ylmethoxy)-1-oxo-1,4-dihydronaphthalene-4-spiro-2′-naphto [1′,8′-de][1′,3′] dioxin] | 2 µM | 2 µM | – | – | –
4 | C/C=C/COc1cccc2c1C(=O)C=CC21Oc2cccc3cccc(c23)O1 [SR-2, (E)-8-(but-2-enyloxy)-1-oxo-1,4-dihydronaphthalene-4-spiro-2′-naphto [1″,8″-de][1′,3′]dioxin] | 2.9 µM | 1.3 µM | – | – | –
5 | O=C1C=CC2(Oc3cccc4cccc(c34)O2)c2cccc(OCc3ccncc3)c21 [SR-13, 8-(pyridin-4-ylmethoxy)-1-oxo-1,4-dihydronaphthalene-4-spiro-2′-naphtol [1″,8″-de][1′,3′] dioxin] | 7.3 µM | 8 µM | – | – | –
6 | COc1cccc2c1C(=O)C=CC21OCCCO1 [TH-223] | – | – | 5 µM | 4.4 µM | –
7 | C=CCOc1cccc2c1C(=O)C=CC21Oc2cccc3cccc(c23)O1 [SR-14, 8-allyloxy-1-oxo-1,4-dihydronaphthalene-4-spiro-2′-naphto [1″,8″-de][1′,3′] dioxin] | 2.7 µM | 2 µM | – | – | –
8 | O=C1C=CC2(Oc3cccc4cccc(c34)O2)c2cccc(O)c21 [palmarumycin CP1, 8-hydroxy-1-oxo-1,4-dihydronaphthalene-4-spiro-2′-naphtho[1″,8″-de] [1′,3′] dioxin, reference compound] | 2.4 µM | 1 to 2 µM | – | 1 µM | equally sensitive
9 | O=C1C=CC2(Oc3cccc4cccc(c34)O2)c2cccc(OC/C=C/c3ccccc3)c21 [SR-1, (E)-8-(3-phenyl-allyloxy)-1-oxo-1,4-dihydronaphthalene-4-spiro-2′-naphto[1″, 8″-de] [1′,3′] dioxin] | 7.5 µM | 7.9 µM | – | – | –
10 | O=C1C=CC2(Oc3cccc4cccc(c34)O2)c2cccc(OCc3ccccn3)c21 [SR-11, 8-(pyridin-2-ylmethoxy)-1-oxo-1,4-dihydronaphthalene-4-spiro-2′-naphto [1″,8″-de][1′,3′] dioxin] | 2.8 µM | 2 µM | – | – | –
11 | COc1cccc(COc2cccc3c2C(=O)C=CC32Oc3cccc4cccc(c34)O2)c1 [SR-5, 8-(3-methoxy-benzyloxy)-1-oxo-1,4-dihydronaphthalene-4-spiro-2′-naphto [1″,8″-de][1′,3′] dioxin] | 2.7 µM | 2.3 µM | – | – | –
12 | CC(C)=CCC/C(C)=C/COc1cccc2c1C(=O)C=CC21Oc2cccc3cccc(c23)O1 [SR-9, (E,E)-8-(3,7-diemthyl-octa-2,6-dienyloxy)-1-oxo-1,4-dihydronaphthalene-4-spiro-2′-naphtol [1″,8″-de][1′,3′] dioxin] | 2 µM | 4.6 µM | – | – | –
13 | O=C1C=CC2(Oc3cccc4cccc(c34)O2)c2cccc(OCc3ccco3)c21 [SR-7, 8-(furan-2-ylmethoxy)-1-oxo-1,4-dihydronaphthalene-4-spiro-2′-naphto [1″,8″-de][1′,3′] dioxin] | 2.5 µM | 1 to 2 µM | – | 1.1 µM | equally sensitive
14 | CCCCCCOc1cccc2c1C(=O)C=CC21Oc2cccc3cccc(c23)O1 [SR-3, 8-hexyloxy-1-oxo-1,4-dihydronaphthalene-4-spiro-2′-naphto [1″,8″-de] [1′,3′] dioxin] | 13.6 µM | 13.4 µM | – | – | –
15 | O=C1C=CC2(Oc3cccc4cccc(c34)O2)c2cccc(OCc3cccnc3)c21 [SR-12, 8-(pyridin-3-ylmethoxy)-1-oxo-1,4-dihydronaphthalene-4-spiro-2′-naphto [1″,8″-de][1′,3′] dioxin] | 1.4 µM | 1.5 µM | – | – | –
16 | O=C1C=CC2(OCCO2)c2cccc(O)c21 [TH-169] | 4.3 µM | 4.2 µM | – | – | –
